Laboratory results: patent US8592448B2 (OSI Pharmaceuticals, LLC, priority 2008, dated 2013)
Read-outs that look alike come from different tables or passages of the source.

Tests used:
MKN45 cells = experiment: MKN45 cell proliferation assay (CellTiter-Glo); assay type: cell-based; conditions: MKN45 cell line, 3 days incubation, at least duplicate experiments, read-out: Prolif. IC50
Method: The effect of inhibitors on the proliferation of MKN45 cells was determined using the following protocol. MKN45 cells were plated in Corning 3917 96-well white tissue culture treated plates in growth medium (RPMI, 10% FCS) at a density of 5000 cells/well in a total volume of 135 μL and incubated at 37° C., 5% CO2, 95% humidity overnight. The following day, one-tenth volume of a 10× concentration of compounds was added to the wells in an 8-point dilution series. The dilution series was composed of an initial 1:5 dilution of a 10 mM stock of compound in DMSO, followed by serial 1:4 dilutions in DMSO, then a 1:20 dilution in growth medium prior to the 1:10 dilution into the cell plate. Final DMSO concentration on the cells was 0.1%, there were control wells treated with both 0.1% DMSO and no DMSO. The typical dilution range is 10 μM to 0.6 nM. Once the compound was added to the cells, plates were incubated for 3 days at 37° C., 5% CO2 at 95% humidity. On the third day, after allowing all cells and reagents to come to room temperature, 25 μL of CellTiter-Glo reagent (Promega # G7573) was added to the wells. Plates were shaken on a platform for 10 minutes prior to reading luminescence for 0.1 seconds. The signal of the control wells was taken as 100% growth and growth inhibition was expressed as percent of control. IC50 values were determined from the percent of control data using a standard four-parameter model.
(§1) The IC50 values of exemplary compounds of the present invention determined in a cell proliferation assay using the MKN45 cell line according to the procedures described herein in at least duplicate experiments are abbreviated as follows and are shown in Table 2: A, IC50≦0.1 μM; B, 0.1 μM<IC50≦1 μM; C, 1 μM<IC50≦10 μM; D, IC50>10 μM; ND, not determined. The Example # of Table 2 corresponds to the compound example number as illustrated in the Examples section.

phosphorylated c-MET = target: T1, phosphorylated c-MET (Homo sapiens, UniProt P08581); experiment: c-MET cell mechanistic assay (phosphorylated c-MET in MKN45 cells); assay type: cell-based; conditions: MKN45 cell line, four hours incubation, phosphorylated c-MET levels, at least duplicate experiments; read-out: Met mech IC50
T1 construct: endogenous in cells; host or cells: MKN45
T1 sequence (P08581 25-1390): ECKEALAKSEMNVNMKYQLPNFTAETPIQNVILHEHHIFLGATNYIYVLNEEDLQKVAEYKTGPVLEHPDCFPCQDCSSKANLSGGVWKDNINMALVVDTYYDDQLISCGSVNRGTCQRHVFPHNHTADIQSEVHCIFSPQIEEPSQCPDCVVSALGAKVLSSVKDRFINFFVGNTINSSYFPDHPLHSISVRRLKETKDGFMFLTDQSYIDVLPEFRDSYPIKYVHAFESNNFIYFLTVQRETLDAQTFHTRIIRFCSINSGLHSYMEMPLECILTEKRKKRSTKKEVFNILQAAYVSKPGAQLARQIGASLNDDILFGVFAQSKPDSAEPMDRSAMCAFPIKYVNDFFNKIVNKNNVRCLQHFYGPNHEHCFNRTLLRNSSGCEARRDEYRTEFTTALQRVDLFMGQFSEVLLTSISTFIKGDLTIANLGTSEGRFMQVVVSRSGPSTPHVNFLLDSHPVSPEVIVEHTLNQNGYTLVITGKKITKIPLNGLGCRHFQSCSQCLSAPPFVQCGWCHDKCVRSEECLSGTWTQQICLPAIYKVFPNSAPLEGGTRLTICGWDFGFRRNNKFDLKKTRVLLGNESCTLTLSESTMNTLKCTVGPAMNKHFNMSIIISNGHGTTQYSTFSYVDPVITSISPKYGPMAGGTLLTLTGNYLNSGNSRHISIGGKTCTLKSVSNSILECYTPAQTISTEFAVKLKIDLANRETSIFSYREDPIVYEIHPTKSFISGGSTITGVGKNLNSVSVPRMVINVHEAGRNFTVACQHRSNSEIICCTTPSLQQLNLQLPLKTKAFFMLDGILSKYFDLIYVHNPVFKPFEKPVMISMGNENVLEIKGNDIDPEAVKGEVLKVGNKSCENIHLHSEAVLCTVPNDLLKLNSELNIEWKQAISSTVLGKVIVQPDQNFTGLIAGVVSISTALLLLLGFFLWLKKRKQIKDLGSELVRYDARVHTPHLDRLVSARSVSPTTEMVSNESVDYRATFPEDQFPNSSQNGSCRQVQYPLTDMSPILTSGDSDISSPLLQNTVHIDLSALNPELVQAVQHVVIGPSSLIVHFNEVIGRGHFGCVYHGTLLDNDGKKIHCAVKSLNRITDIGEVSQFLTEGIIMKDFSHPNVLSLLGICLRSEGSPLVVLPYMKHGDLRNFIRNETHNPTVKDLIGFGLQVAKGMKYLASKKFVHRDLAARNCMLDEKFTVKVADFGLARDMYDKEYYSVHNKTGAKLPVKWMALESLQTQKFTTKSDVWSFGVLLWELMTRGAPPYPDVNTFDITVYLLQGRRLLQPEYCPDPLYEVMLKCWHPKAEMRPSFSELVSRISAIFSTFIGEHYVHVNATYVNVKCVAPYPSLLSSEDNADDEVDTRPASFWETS
Method: The cellular activity of the compounds of the present invention may be determined by the following procedure. MKN45 cells were plated in Falcon 3072 96-well plates in growth media (RPMI, 10% FBS, 1% L-glutamine) at a density of 5000 cells/well and incubated at 37° C., 5% CO2 overnight. The following day, one-tenth volume of a 10× concentration of compounds was added to the wells in a 6-point dilution series. The dilutions series was composed of an initial 1:5 dilution in DMSO, followed by a 1:10 dilution in growth media, for a final DMSO concentration on cells of 0.5%. Control wells were treated with 0.5% DMSO. The typical range of dilution was 10 μM to 3 nM. Once compound was added to the cells, plates were incubated for four hours at 37° C., 5% CO2. Plates were then washed in PBS, and lysed in triton-based lysis buffer. Lysates were transferred to a precoated capture plate made by Biosource (Cat # KH00281). The phosphorylated c-MET levels were measured by incubating with a rabbit polyclonal antibody against phosphorylated c-MET ([pYpYpY1230/1234/1235]) followed by an anti-rabbit antibody conjugated to HRP. Signal was measured on a Wallac Victor plate reader at 450 nm. The DMSO signal of the control wells was defined as 100% and the percent of inhibition of phosphorylated c-Met was expressed as percent of control. IC50 values were determined from the percent of control data using a standard four-parameter model.
as §1, with “in a c-MET cell mechanistic” for “in a cell proliferation”, “c-MET cell mechanistic assay using” for “a cell proliferation assay using”, “in Table 3: A, IC50≦0.1” for “in Table 2: A, IC50≦0.1”, “of Table 3 corresponds to” for “of Table 2 corresponds to”

2-(4-{3-[(S)-1-(2,6-Dichloro-3-fluorophenyl)ethyl]-1H-pyrrolo[2,3-b]-pyridin-5-yl}-pyrazol-1-yl)-acetamide [Example 75]
IC50 (MKN45 cells): 0.1 to 1 µM
IC50 (phosphorylated c-MET): ≤ 0.1 µM

3-[1-(2,6-Dichloro-3-fluorophenyl)ethyl]-5-[1-(1-methanesulfonylpiperidin-4-yl)-1H-pyrazol-4-yl]-1H-pyrrolo[2,3-b]pyridine [Example 37]
IC50 (phosphorylated c-MET): 0.1 to 1 µM

CC(c1c(Cl)ccc(F)c1Cl)c1c[nH]c2ncc(-c3ccc(O)cc3)cc12 (centres unmarked) [Example 8, 4-{3-[1-(2,6-Dichloro-3-fluorophenyl)ethyl]-1H-pyrrolo[2,3-b]pyridin-5-yl}phenol]
IC50 (MKN45 cells; Homo sapiens, MKN-45, 72 h): 1 to 10 µM

CC(c1c(Cl)ccc(F)c1Cl)c1c[nH]c2ncc(-c3ccsc3)cc12 (centres unmarked) [Example 9, 3-[1-(2,6-Dichloro-3-fluorophenyl)ethyl]-5-thiophen-3-yl-1H-pyrrolo[2,3-b]pyridine]
IC50 (MKN45 cells; Homo sapiens, MKN-45, 72 h): 1 to 10 µM

CC(=O)Nc1ccc(-c2cnc3[nH]cc(C(C)c4c(Cl)ccc(F)c4Cl)c3c2)cc1 (centres unmarked) [Example 10, N-(4-{3-[1-(2,6-Dichloro-3-fluorophenyl)ethyl]-1H-pyrrolo[2,3-b]pyridin-5-yl}phenyl)acetamide]
IC50 (MKN45 cells; Homo sapiens, MKN-45, 72 h): 1 to 10 µM

CC(c1c(Cl)ccc(F)c1Cl)c1c[nH]c2ncc(-c3ccc(N(C)C)cc3)cc12 (centres unmarked) [Example 11, (4-{3-[1-(2,6-Dichloro-3-fluorophenyl)ethyl]-1H-pyrrolo[2,3-b]pyridin-5-yl}phenyl)dimethylamine]
IC50 (MKN45 cells; Homo sapiens, MKN-45, 72 h): 1 to 10 µM

CC(c1c(Cl)ccc(F)c1Cl)c1c[nH]c2ncc(-c3cncnc3)cc12 (centres unmarked) [Example 12, 3-[1-(2,6-Dichloro-3-fluorophenyl)ethyl]-5-pyrimidin-5-yl-1H-pyrrolo[2,3-b]pyridine]
IC50 (MKN45 cells; Homo sapiens, MKN-45, 72 h): 1 to 10 µM

CC(c1c(Cl)ccc(F)c1Cl)c1c[nH]c2ncc(-c3ccc(C(N)=O)cc3)cc12 (centres unmarked) [Example 14, 4-{3-[1-(2,6-Dichloro-3-fluorophenyl)ethyl]-1H-pyrrolo[2,3-b]pyridin-5-yl}benzamide]
IC50 (MKN45 cells; Homo sapiens, MKN-45, 72 h): 1 to 10 µM

CC(c1c(Cl)ccc(F)c1Cl)c1c[nH]c2ncc(-c3ccc(N4CCN(C)CC4)cc3)cc12 (centres unmarked) [Example 16, 3-[1-(2,6-Dichloro-3-fluorophenyl)ethyl]-5-[4-(4-methylpiperazin-1-yl)phenyl]-1H-pyrrolo[2,3-b]pyridine]
IC50 (MKN45 cells; Homo sapiens, MKN-45, 72 h): 0.1 to 1 µM

CC(c1c(Cl)ccc(F)c1Cl)c1c[nH]c2ncc(-c3ccc(NS(C)(=O)=O)cc3)cc12 (centres unmarked) [Example 17, N-(4-{3-[1-(2,6-Dichloro-3-fluorophenyl)ethyl]-1H-pyrrolo[2,3-b]pyridin-5-yl}phenyl)methanesulfonamide]
IC50 (MKN45 cells; Homo sapiens, MKN-45, 72 h): 1 to 10 µM

CC(c1c(Cl)ccc(F)c1Cl)c1c[nH]c2ncc(-c3ccc(C(=O)NC4CCCCC4)cc3)cc12 (centres unmarked) [Example 21, N-Cyclohexyl-4-{3-[1-(2,6-dichloro-3-fluorophenyl)ethyl]-1H-pyrrolo[2,3-b]pyridin-5-yl}benzamide]
IC50 (MKN45 cells; Homo sapiens, MKN-45, 72 h): 1 to 10 µM

CC(c1c(Cl)ccc(F)c1Cl)c1c[nH]c2ncc(-c3ccc(N4CCOCC4)cc3)cc12 (centres unmarked) [Example 25, 3-[1-(2,6-Dichloro-3-fluorophenyl)ethyl]-5-(4-morpholin-4-ylphenyl)-1H-pyrrolo[2,3-b]pyridine]
IC50 (MKN45 cells; Homo sapiens, MKN-45, 72 h): 0.1 to 1 µM

CNC(=O)N1CC=C(c2cnc3[nH]cc(C(C)c4c(Cl)ccc(F)c4Cl)c3c2)CC1 (centres unmarked) [Example 34, 4-{3-[1-(2,6-Dichloro-3-fluorophenyl)ethyl]-1H-pyrrolo[2,3-b]pyridin-5-yl}-3,6-dihydro-2H-pyridine-1-carboxylic acid methylamide]
IC50 (phosphorylated c-MET): 0.1 to 1 µM

COC(=O)N1CC=C(c2cnc3[nH]cc(C(C)c4c(Cl)ccc(F)c4Cl)c3c2)CC1 (centres unmarked) [Example 35, 4-{3-[1-(2,6-Dichloro-3-fluorophenyl)-ethyl]-1H-pyrrolo[2,3-b]pyridin-5-yl}-3,6-dihydro-2H-pyridine-1-carboxylic acid methyl ester]
IC50 (phosphorylated c-MET): 0.1 to 1 µM

CC(c1c(Cl)ccc(F)c1Cl)c1c[nH]c2ncc(C3=CCN(C(=O)C(O)C(F)(F)F)CC3)cc12 (centres unmarked) [Example 44]
IC50 (phosphorylated c-MET): 0.1 to 1 µM

CC(c1c(Cl)ccc(F)c1Cl)c1c[nH]c2ncc(-c3cnn(C4CCN(S(N)(=O)=O)CC4)c3)cc12 (centres unmarked) [Example 52, 4-(4-{3-[1-(2,6-Dichloro-3-fluorophenyl)ethyl]-1H-pyrrolo[2,3-b]pyridin-5-yl}-pyrazol-1-yl)-piperidine-1-sulfonic acid amide]
IC50 (phosphorylated c-MET): 0.1 to 1 µM

CC(c1c(Cl)ccc(F)c1Cl)c1c[nH]c2ncc(-c3cn(C)cn3)cc12 (centres unmarked) [Example 54, 3-[1-(2,6-Dichloro-3-fluorophenyl)ethyl]-5-(1-methyl-1H-imidazol-4-yl)-1H-pyrrolo[2,3-b]pyridine]
IC50 (phosphorylated c-MET): 0.1 to 1 µM

C[C@H](c1c(Cl)ccc(F)c1Cl)c1c[nH]c2ncc(C3=CCCNC3)cc12 [Example 66, 3-[(S)-1-(2,6-Dichloro-3-fluorophenyl)ethyl]-5-(1,2,5,6-tetrahydropyridin-3-yl)-1H-pyrrolo[2,3-b]pyridine]
IC50 (phosphorylated c-MET): 0.1 to 1 µM

C[C@H](c1c(Cl)ccc(F)c1Cl)c1c[nH]c2ncc(-c3ccncc3)cc12 [Example 68, 3-[(S)-1-(2,6-Dichloro-3-fluorophenyl)ethyl]-5-pyridin-4-yl-1H-pyrrolo[2,3-b]pyridine]
IC50 (phosphorylated c-MET): 0.1 to 1 µM

C[C@H](c1c(Cl)ccc(F)c1Cl)c1c[nH]c2ncc(-c3cnn(CC(=O)O)c3)cc12 [Example 74, (4-{3-[(S)-1-(2,6-Dichloro-3-fluorophenyl)ethyl]-1H-pyrrolo[2,3-b]pyridin-5-yl}-pyrazol-1-yl)-acetic acid]
IC50 (phosphorylated c-MET): 0.1 to 1 µM

C[C@@H](c1c(Cl)ccc(F)c1Cl)c1c[nH]c2ncc(-c3cnn(C4CCN(C=O)CC4)c3)cc12 [Example 82, 4-(4-{3-[(R)-1-(2,6-Dichloro-3-fluorophenyl)ethyl]-1H-pyrrolo[2,3-b]-pyridin-5-yl}-pyrazol-1-yl)-piperidine-1-carbaldehyde]
IC50 (phosphorylated c-MET): 0.1 to 1 µM

C[C@@H](c1c(Cl)ccc(F)c1Cl)c1c[nH]c2ncc(-c3cnn(C4CCN(S(C)(=O)=O)CC4)c3)cc12 [Example 83, 3-[(R)-1-(2,6-Dichloro-3-fluorophenyl)ethyl]-5-[1-(1-methane-sulfonylpiperidin-4-yl)-1H-pyrazol-4-yl]-1H-pyrrolo[2,3-b]pyridine]
IC50 (phosphorylated c-MET): 1 to 10 µM

C[C@@H](c1c(Cl)ccc(F)c1Cl)c1c[nH]c2ncc(-c3cnn(C4CCN(C(N)=O)CC4)c3)cc12 [Example 84, 4-(4-{3-[(R)-1-(2,6-Dichloro-3-fluorophenyl)ethyl]-1H-pyrrolo[2,3-b]-pyridin-5-yl}-pyrazol-1-yl)-piperidine-1-carboxamide]
IC50 (phosphorylated c-MET): 1 to 10 µM

C[C@H](c1c(Cl)ccc(F)c1Cl)c1c[nH]c2ncc(-c3cnn([C@H]4CC[C@H](O)CC4)c3)cc12 [Example 86, trans-4-(4-{3-[(1S)-1-(2,6-dichloro-3-fluorophenyl)ethyl]-1H-pyrrolo[2,3-b]pyridin-5-yl}-1H-pyrazol-1-yl)cyclohexanol]
IC50 (phosphorylated c-MET): ≤ 0.1 µM

C[C@H](c1c(Cl)ccc(F)c1Cl)c1c[nH]c2ncc(-c3cnn([C@H]4CC[C@@H](O)CC4)c3)cc12 [Example 87, cis-4-(4-{3-[(1S)-1-(2,6-dichloro-3-fluorophenyl)ethyl]-1H-pyrrolo[2,3-b]pyridin-5-yl}-1H-pyrazol-1-yl)cyclohexanol]
IC50 (phosphorylated c-MET): ≤ 0.1 µM
